Reference: patent US9678060B2, “Lunasin-induced regulation of disease-related gene expression” (THE REGENTS OF THE UNIVERSITY OF CALIFORNIA, priority 2007, dated 2017)

Columns and labels:
[1] = test system: H4-Lys16 acetylation at THBS gene promoter/CpG island; experiment: PCR of ChIP DNA isolated with acetylated H4-Lys16 antibody; format: cell-based, human; details: lunasin-treated RWPE-1 (non-tumorigenic)
Source text: (§1) THBS contains a CpG island within its promoter which together with other chemopreventative genes and tumor suppressors are frequently found to be hypermethylated during cancer formation. Since DNA hypermethylation of CpG islands is associated with histone hypoacetylation, we wanted to determine if there is a loss of H4-Lys16 acetylation within this region of the gene by conducting PCR on chromatin immunoprecipitated (ChiP) DNA using acetylated H4-Lys16 antibody and primers derived from the promoter/CpG island and exon 11 of the thrombospondin gene. […] The loss of H4-Lys16 acetylation on CpG island of the THBS promoter in tumor prostate cells leads to the silencing of the THBS gene and the inability of lunasin to increase H4-Lys16 acetylation and upregulate expression in tumorigenic cell lines.
(§2) THBS protein levels were determined in RWPE-1 and -2 cell lines treated with or without lunasin. PCR was conducted on ChIP DNA isolated with acetylated H4-Lys16 antibody, using primers derived from the promoter and exon 11 of the THBS gene.

[2] = target: T1, histone H4 N-terminal tail lysines acetylated by p300 (Homo sapiens, UniProt P62805); experiment: In vitro histone acetylation (HAT) assay, p300; format: biochemical
T1 construct: Acid extracted histones from untreated Hela cells; endogenous in cells; host or cells: HeLa
Source text: (§3) Inhibition of histone acetylation and hypoacetylated histones are by nature correlated with transcriptional silencing and downregulation of genes. How then can lunasin, which inhibits H3 and H4 N-terminal tail acetylation, act as a transcriptional activator? To answer this question, the inventors determined the effect of lunasin on the acetylation of specific lysine residues on the H4 N-terminal tail ([…]) using the PCAF, Hat1 and p300 histone acetylase enzymes and acid-extracted core histones as substrate.
(§4) Acid extracted histones from untreated Hela cells and purified recombinant histone H4 are used as templates in an in vitro histone acetylation (HAT) assay. Histone templates are pre-incubated in the presence or absence of 2 μM lunasin peptide for 30 min at RT before the addition of acetyl co-A, HAT reaction buffer and histone acetylase enzymes (p300, HAT1 and PCAF). HAT reaction mixture is incubated with shaking at 30° C. for 1 h before stopping the reaction by adding protein sample buffer and boiling for 5 min. Samples are run on 10-20% SDS-PAGE gels, blotted onto nitrocellulose membranes and immunostained with antibodies against histone H4 with specific N-terminal lysine acetylation sites at […], 8, 12 and 16. Densitometer readings are normalized using signals from untreated histone templates.

[3] = target: deacetylated histone H4 (Homo sapiens, UniProt P62805); experiment: Binding to histone H4 (FIG. 8)
[4] = test system: UGT1A family of genes in HepG2 liver cells; experiment: UGT1A expression in HepG2 cells (Western blot, RT-PCR); format: cell-based; details: 24 h
Procedure: HepG2 liver cells are grown in cell culture in the presence or absence of 10 uM lunasin peptide. After 24 h exposure, cells are harvested and total protein and RNA are harvested. Western blots are immunostained with UGT1A1 antibody and densitometer signals normalized using actin controls. […] Real-time quantitative RT-PCR will be conducted to measure differences in transcription levels.

[5] = test system: E1A-transfected mouse fibroblast NIH 3T3 cells; details: E1A-transfected NIH 3T3 cells; cited from earlier work
[6] = test system: p21/WAF1/Cip1 in NIH 3T3 cells; details: NIH 3T3 cells pre-treated 24 h, eight days after E1A transfection; cited from earlier work
[7] = test system: E1A-transfected C3H10T1/2 cells; details: cited from earlier work
[8] = test system: female SENCAR mice; details: topical application; cited from earlier work
[9] = test system: C3H 10T1/2 mouse embryo fibroblast cells; details: C3H/T101/2 cells pre-treated 24 hour with lunasin (as little as 125 nM), then DMBA and MCA; six weeks assay; cited from earlier work
[10] = target: T2, histone H4 N-terminal tail lysines acetylated by PCAF (Homo sapiens, UniProt P62805); experiment: In vitro histone acetylation (HAT) assay, PCAF; format: biochemical; details: 2 μM lunasin
T2 construct: Acid extracted histones from untreated Hela cells; endogenous in cells; host or cells: HeLa
Source text: as §3, §4

[11] = target: T3, histone H4 N-terminal tail lysines acetylated by Hat1 (Homo sapiens, UniProt P62805); experiment: In vitro histone acetylation (HAT) assay, Hat1; format: biochemical
T3 construct: Acid extracted histones from untreated Hela cells; endogenous in cells; host or cells: HeLa
Source text: as §3, §4

[12] = test system: thrombospondin (THBS); experiment: Western blot of THBS protein in RWPE-1 and RWPE-2 cells; format: cell-based, human
Source text: as §1, §2

[13] = test system: non-tumorigenic prostate epithelial cell line (RWPE-1); experiment: Microarray gene expression profile after 24 hour exposure to lunasin; format: cell-based, human
Procedure: (§5) In the present disclosure the investigators analyzed changes in gene expression profiles of normal (RWPE-1) and malignant (RWPE-2) prostate epithelial cell lines after 24 hour exposure to synthetic lunasin. Results disclosed herein support the anti-neoplastic property of lunasin and help elucidate its molecular mechanism. […] It is therefore reasoned that lunasin suppresses neoplastic transformation by up-regulating various genes.
(§6) To determine the genetic changes associated with lunasin treatment, the gene expression profiles of non-tumorigenic (RWPE-1) (SEQ ID No.2) and tumorigenic (RWPE-2) (SEQ ID No.2) prostate cells treated with synthetic lunasin were assessed using microarray analysis.

[14] = test system: tumorigenic prostate epithelial cell line (RWPE-2); experiment: as above; format: cell-based, human
Procedure: as §5, §6

[15] = acid-extracted core histones, 2 μM lunasin
[16] = basal acid-extracted core histones, 2 μM lunasin
[17] = lunasin-treated acid-extracted core histones, 2 μM lunasin
[18] = recombinant H4, same in lunasin-treated and non-treated
[19] = RWPE-1, 24 hour exposure to 2 micromolar lunasin

## lunasin: 43 amino acid small subunit of a soybean 2S albumin; residues 22-64 of SEQ ID NO:2 of U.S. Pat. No. 6,544,956; used as synthetic peptide
[1]
  H4-Lys16 acetylation at THBS gene (ChIP PCR): significant increase
[2]; [15]
  H4-Lys12 acetylation by p300: did not reduce
[2]; [16]
  inhibition of H4-Lys 8 acetylation by p300: 23.5%
[2]; [17]
  increase in H4-Lys16 acetylation by p300: 22%
[2]; [18]
  Lys16 acetylation by p300, recombinant H4 as substrate: loss of Lys16 acetylation
[3]
  binding preference for histone H4: preferentially binds to deacetylated histone H4
[4]; 10 uM lunasin
  UGT1A1 protein levels (Western blot): upregulates
[4]; 10 μM lunasin
  UGT1A1 expression (RT-PCR): significant upregulation
  UGT1A3 expression (RT-PCR): significant upregulation
  UGT1A6 expression (RT-PCR): significant upregulation
  UGT1A10 expression (RT-PCR): significant upregulation
[5]
  foci formation: suppress foci formation
[6]
  increase in p21/WAF1/Cip1 protein levels: five-fold increase
[7]
  apoptosis: induce apoptosis
[8]
  skin tumorigenesis: inhibited skin tumorigenesis
[9]
  reduction of foci formation: 70%
[10]; acid-extracted core histones
  H4-Lys 5 acetylation by pCAF: did not reduce
[10]; basal acid-extracted core histones
  inhibition of H4-Lys 8 acetylation by PCAF: 33%
[11]; [15]
  H4-Lys 5 acetylation by Hat1: did not reduce
  H4-Lys12 acetylation by Hat1: did not reduce
[11]; [16]
  inhibition of H4-Lys 8 acetylation by Hat1: 30%
[11]; [17]
  increase in H4-Lys16 acetylation by Hat1: 30%
[11]; [18]
  Lys16 acetylation by Hat1, recombinant H4 as substrate: loss of Lys16 acetylation
[12]; non-tumorigenic RWPE-1 cell line
  THBS protein level (Western blot): upregulated
[12]; tumorigenic RWPE-2 prostate cells
  THBS protein level (Western blot): silenced
[13]; RWPE-1, 2 μM lunasin for 24 hours, 14500 genes interrogated
  Number of genes up-regulated (greater than twofold change): 121 genes
[13]; [19]
  Fold-change BNIP3, NIP3: 2.05
  Fold-change BUB1B, BUBR1: 2.23
  Fold-change ERBB2IP, ERBIN: 2.23
  Fold-change MAD2L1: 2.12
  Fold-change PORIMIN: 2.26
  Fold-change PRKAR1A, PKA: 2.45
  Fold-change PRKCL2, PRK2: 2.33
  Fold-change PSMC6: 2.58
  Fold-change RANBP2: 2.36
  Fold-change SMURF2: 2.29
  Fold-change SPTLC1: 2.12
  Fold-change THBS1, TSP1: 2.05
  Fold-change TOB1: 2.32
  Fold-change TTK: 2.08
  Fold-change UBE1C: 2.15
  Fold-change USP1: 2.23
[13]; at 24 hours
  SP3 expression in microarray: upregulated
[13]; non-tumorigenic epithelial cells, 2 μM lunasin
  Genes down-regulated: No genes were down-regulated
[13]; within 24 hours
  p21/WAF1/Cip1 expression in microarray: did not show upregulation
[14]; RWPE-2, 2 μM lunasin for 24 hours, 14500 genes interrogated
  Genes up-regulated (greater than twofold change): only two genes were up-regulated
[14]; tumorigenic epithelial cells, 2 μM lunasin
  Genes down-regulated: No genes were down-regulated
